# In patent US7306804B2 (priority 1998, dated 2007):
# Where two headings read alike, the source gives them in different places.
# Columns and labels:
# [1] = test system: anti-peptide antibodies in serum; format: binding, human; design: key to Anti-peptide antibody response: +, Positive (titer above control); −, Negative (titer below control)
# [2] = test system: anti-peptide antibodies in serum; format: binding, chimpanzee; design: key: +, Positive (Titer > 1:100); −, Negative (Titer < 1:100)
# [3] = test system: PBMCs from normal and HIV-positive individuals; format: cell-based, human
# [4] = test system: PBMCs from control and HIV-1 infected chimpanzees; format: cell-based, chimpanzee
substance,measurement,setting,value
FLGFLGAAGSTMGAASLTLTVQARQ [Peptide 121],number of HIV+ individuals with positive antibody titers (<1:1280),[1],one
same,Anti-peptide antibody response,[1]; HIV-positive patient MSf,−
same,Anti-peptide antibody response,[1]; HIV-positive patient MSm,−
same,Anti-peptide antibody response,[1]; HIV-positive patient eight,−
same,Anti-peptide antibody response,[1]; HIV-positive patient eleven,−
same,Anti-peptide antibody response,[1]; HIV-positive patient fifteen,−
same,Anti-peptide antibody response,[1]; HIV-positive patient five,−
same,Anti-peptide antibody response,[1]; HIV-positive patient four,−
same,Anti-peptide antibody response,[1]; HIV-positive patient fourteen,−
same,Anti-peptide antibody response,[1]; HIV-positive patient nine,+
same,Anti-peptide antibody response,[1]; HIV-positive patient one,−
same,Anti-peptide antibody response,[1]; HIV-positive patient seven,−
same,Anti-peptide antibody response,[1]; HIV-positive patient six,−
same,Anti-peptide antibody response,[1]; HIV-positive patient ten,−
same,Anti-peptide antibody response,[1]; HIV-positive patient thirteen,−
same,Anti-peptide antibody response,[1]; HIV-positive patient three,−
same,Anti-peptide antibody response,[1]; HIV-positive patient twelve,−
same,Anti-peptide antibody response,[1]; HIV-positive patient two,−
same,Anti-peptide antibody response,[1]; Normal-1 (HIV-seronegative),−
same,Anti-peptide antibody response,[1]; Normal-2 (HIV-seronegative),−
same,Anti-peptide antibody response,[2],−
same,Anti-peptide antibody response,"[2]; chimpanzee 40, control normal",−
same,Anti-peptide antibody response,"[2]; chimpanzee 73, control normal",−
same,number of HIV+ individuals with positive proliferative responses,[3]; 17 HIV+ individuals tested,five
same,T-cell proliferative response,[3]; HIV-positive patient MSf,"− (−, Negative (SI < 2.0))"
same,T-cell proliferative response,[3]; HIV-positive patient MSm,"− (−, Negative (SI < 2.0))"
same,T-cell proliferative response,[3]; HIV-positive patient eight,"− (−, Negative (SI < 2.0))"
same,T-cell proliferative response,[3]; HIV-positive patient eleven,"− (−, Negative (SI < 2.0))"
same,T-cell proliferative response,[3]; HIV-positive patient fifteen,"+ (+, Positive (Stimulation Index [SI] > 2.0))"
same,T-cell proliferative response,[3]; HIV-positive patient five,"− (−, Negative (SI < 2.0))"
same,T-cell proliferative response,[3]; HIV-positive patient four,"− (−, Negative (SI < 2.0))"
same,T-cell proliferative response,[3]; HIV-positive patient fourteen,"+ (+, Positive (Stimulation Index [SI] > 2.0))"
same,T-cell proliferative response,[3]; HIV-positive patient nine,"− (−, Negative (SI < 2.0))"
same,T-cell proliferative response,[3]; HIV-positive patient one,"− (−, Negative (SI < 2.0))"
same,T-cell proliferative response,[3]; HIV-positive patient seven,"− (−, Negative (SI < 2.0))"
same,T-cell proliferative response,[3]; HIV-positive patient six,"+ (+, Positive (Stimulation Index [SI] > 2.0))"
same,T-cell proliferative response,[3]; HIV-positive patient ten,"+ (+, Positive (Stimulation Index [SI] > 2.0))"
same,T-cell proliferative response,[3]; HIV-positive patient thirteen,"− (−, Negative (SI < 2.0))"
same,T-cell proliferative response,[3]; HIV-positive patient three,"+ (+, Positive (Stimulation Index [SI] > 2.0))"
same,T-cell proliferative response,[3]; HIV-positive patient twelve,"− (−, Negative (SI < 2.0))"
same,T-cell proliferative response,[3]; HIV-positive patient two,"− (−, Negative (SI < 2.0))"
same,T-cell proliferative response,[3]; Normal-1 (HIV-seronegative),"− (−, Negative (SI < 2.0))"
same,T-cell proliferative response,[3]; Normal-2 (HIV-seronegative),"− (−, Negative (SI < 2.0))"
same,T-cell proliferative response,"[4]; chimpanzee 40, control normal","− (−, Negative (SI < 2.0))"
same,T-cell proliferative response,"[4]; chimpanzee 62, HIV-infected","+ (+, Positive (Stimulation Index [SI] > 2.0))"
same,T-cell proliferative response,"[4]; chimpanzee 69, HIV-infected","+ (+, Positive (Stimulation Index [SI] > 2.0))"
same,T-cell proliferative response,"[4]; chimpanzee 73, control normal","− (−, Negative (SI < 2.0))"
same,T-cell proliferative response,"[4]; chimpanzee 80, HIV-infected","+ (+, Positive (Stimulation Index [SI] > 2.0))"
same,T-cell proliferative response,"[4]; chimpanzee 99, HIV-infected","− (−, Negative (SI < 2.0))"
same,T-cell proliferative response,"[4]; chimpanzee 100, HIV-infected","+ (+, Positive (Stimulation Index [SI] > 2.0))"
same,T-cell proliferative response,"[4]; chimpanzee 139, HIV-infected","− (−, Negative (SI < 2.0))"
same,T-cell proliferative response,"[4]; chimpanzee 175, HIV-infected","+ (+, Positive (Stimulation Index [SI] > 2.0))"
same,T-cell proliferative response,"[4]; chimpanzee 247, HIV-infected","− (−, Negative (SI < 2.0))"
same,T-cell proliferative response,"[4]; chimpanzee 310, HIV-infected","− (−, Negative (SI < 2.0))"
same,number of HIV-infected chimpanzees with positive proliferative responses (SI>2.0),[4]; nine HIV-infected chimpanzees tested,five
"phytohemagglutinin [PHA, reference compound]","SI values, proliferation",[3]; HIV+ individuals,20.3-23.3
same,"cpm values, proliferation",[3]; HIV+ individuals,108361-127640 cpm
same,"SI values, proliferation",[3]; normal subjects,131-183
same,proliferation,[4]; all nine HIV-infected chimpanzees,high levels of proliferation
same,"cpm values, proliferation",[4]; two control uninfected chimpanzees,15832-20504 cpm
